Results taken from US8623661B2, “Iron chelating agent, method for producing same, method for determining amount of iron ions and method for trapping iron ions” (National University Corporation Asahikawa Medical College, priority 2008, dated 2014).
Each block holds one compound with its values, some of them ahead of it.

What was measured:
Format in all cases: binding
[1] = molecular target: T1, transferrin iron complex (holo-Transferrin (hTf), human) (Homo sapiens, UniProt P02787); assay: Evaluation D: capture of iron ions from transferrin iron complex; settings: for hTf residual ratio (%): relative to non-treated holo-Transferrin, 24 hours with 5 mM chelator solution; for Absorbance (466 nm): transferrin fraction after 24 hours at room temperature with 5 mM chelator solution and 50 μM transferrin iron complex solution, ultrafiltration
T1 construct: purchased Sigma Corporation T0665-50MG
Experimental: Evaluation was carried out by the following evaluation method D with respect to properties whether iron ions were captured from the transferrin iron complex (transferrin iron complex in which transferrin is chelated to iron ions) by the iron chelating agent according to Examples 1 to 2.
The iron chelating agent according to Example 1 was dissolved in 1×D-PBS (pH 7.2) to prepare an iron chelating agent solution (“Fe-Ser•Na (5 mM)”) having an iron chelating agent concentration of 5 mM, in the same manner as the preparation method of the iron chelating agent in evaluation A of the iron chelating agent.
Further, as described above, the iron chelating agent according to Example 2 was dissolved in 1×D-PBS (pH 7.2) to prepare an iron chelating agent solution (“Fe-His•Na (5 mM)”) having an iron chelating agent concentration of 5 mM.
Further, 800 mM HEDTA solution as the iron chelating agent according to Comparative Example 3 was prepared as described above. 13.76 g of crystals were taken in a 50 mL conical tube, 25 mL of Milli-Q water was added and dissolution performed, and then adjustment to pH 7.0 was performed using concentrated hydrochloric acid (35 to 37%) and the total amount was adjusted to 50 mL using Milli-Q water (HEDTA solution (800 mM)). HEDTA solution (“HEDTA solution (5 mM)”) having a concentration of HEDTA of 5 mM was prepared using 1×D-PBS (pH 7.2).
Further, 800 mM solution (pH 7.0) was prepared by using NTA2Na and NTA3Na as iron chelating agents according to Comparative Example 1 as described above. 9.4 g of NTA2Na was dissolved in Milli-Q water and the total volume was made up to 50 mL (referred to as “NTA2Na solution (800 mM)” in some cases). Meanwhile, 11.0 g of NTA3Na was dissolved in Milli-Q water and the total volume was made up to 50 mL (“NTA3Na solution (800 mM)”). NTA2Na solution (800 mM) (pH 6.3) and NTA3Na solution (800 mM) (pH 11.3) were mixed to produce 800 mM of NTA solution with pH 7.0. NTA solution (“NTA solution (5 mM)”) having a concentration of NTA of 5 mM was prepared by using 1×D-PBS (pH 7.2).
A commercially available transferrin iron complex (holo-Transferrin (hTf), human, Code T0665-50MG, Lot 095K1633, manufactured by Sigma Corporation) was dissolved in 1×D-PBS (pH 7.2) to prepare a transferrin iron complex solution having a concentration of iron ions (iron ions which are transferrin-bound iron) of 50 μM.
50 μl of 50 μM transferrin iron complex solution was taken in a 1.5 mL sample tube, 50 μl of each of iron chelating agent solutions (Fe-Ser•Na (5 mM), Fe-His•Na (5 mM), NTA solution (5 mM), HEDTA solution (5 mM)) was added thereto and left at room temperature under light shielding for 24 hours. 50 μl of various reaction liquids was taken in a centrifugal ultrafiltration unit (trade name “Amicon Ultra-4 Ultracel-30k” UFC8030, manufactured by Millipore Corporation), and 450 μl of 1×D-PBS (pH 7.2) was added thereto, centrifugation was carried out at 3,500 rpm and 20° C. for 30 minutes, and transferrin and each low molecular chelating agents were separated (first time). After centrifugation, the filtrate was discarded. 450 μl of 1×D-PBS (pH 7.2) was added again to the solution (about 50 μl) containing transferrin concentrated in a unit and centrifugation was carried out with the same conditions (second time). A solution containing transferrin concentrated in a unit was recovered after the second time of centrifugation and the absorbance at the wavelength of 466 nm was measured using a spectrophotometer (trade name “Spectrophotometer DU 640”, manufactured by Beckman Coulter).

[2] = test system: iron citrate complex ammonium salt (FAC); assay: Evaluation C: chelating ability in MOPS/acetonitrile solvent, FAC solution
Experimental: (§1) Evaluation was carried out by the following evaluation method C as to whether or not the iron chelating agent according to Examples 1 to 3 had chelating ability with iron in 3-morpholinopropanesulfonic acid (C7H15NO4S;MOPS) and acetonitrile solution as solvents used in high performance liquid chromatography (HPLC).
(§2) 2.09 g of morpholinopropanesulfonic acid (C7H15NO4S; FW=209.26, Code 341-01801, Lot PX013, manufactured by Dojindo/Wako Corporation) was added to a 100 mL Erlenmeyer flask, 80 mL of ultrapure water (pure water produced by an ultrapure water production system manufactured by Millipore Corporation (Milli-Q); “Milli-Q water”) was added thereto and dissolved [pH 4.15 (24.4° C.)]. To this solution, 1N sodium hydroxide solution (1 mol/1 sodium hydroxide solution, Code 192-02175, Lot SEP7274, manufactured by Wako Pure Chemicals Industries) was added in 100 μl portions, the pH was adjusted to 7.0 and further Milli-Q water was made up to 100 mL in a measuring cylinder, whereby 100 mL of MOPS solution (pH 6.99) was prepared.
(§3) An iron chelating agent solution having an iron chelating agent concentration of 50 mM was prepared with respect to the iron chelating agent according to Examples 1 to 3, in the same manner as the preparation method of the iron chelating solution in evaluation A of the iron chelating agent.
(§4) Further, 100 mM of MOPS solution (pH6.99) prepared by the preparation method of the MOPS solution was used.
(§5) Furthermore, a stock solution of acetonitrile (C2H3N, FW=41.05, Code 347-06641, Lot WPI96, manufactured by Dojindo/Wako corporation) was used.
(§6) 13.8 mL of Milli-Q water was taken in a 50 mL conical tube, 1.2 mL of each of the iron chelating agent solutions (Fe-Ser•Na (50 mM), Fe-His•Na (50 mM), Fe-Glu•Na (50 mM)) according to the iron chelating agents of Examples 1 to 3 was added, 1.0 mL of 100 mM MOPS solution was added thereto, and a further 4.0 mL of acetonitrile solution was added to produce an iron chelating solution using MOPS. The iron chelating agent solutions using MOPS and iron chelating agent according to Examples 1 to 3 were defined respectively as Fe-Ser•Na (MOPS solution)” (iron chelating agent according to
(§7) Example 1), “Fe-His•Na (MOPS solution)” (iron chelating agent according to Example 2), and “Fe-Glu•Na(MOPS solution)” (iron chelating agent according to Example 3).
An iron citrate complex ammonium salt solution (FAC solution (20 mM)) having a concentration of iron ions of 20 mM and an iron citrate complex ammonium salt solution (FAC solution (2 mM)) having a concentration of iron ions of 2 mM were prepared, in the same manner as the preparation method of the iron citrate complex ammonium solution in evaluation A of the iron chelating agent.
FAC solution (20 mM) was added to and mixed with each of the iron chelating agent solutions [Fe-Ser•Na (MOPS solution), Fe-His•Na (MOPS solution), Fe-Glu•Na (MOPS solution)] using MOPS.

[3] = test system: iron nitrilotriacetate complex (Fe-NTA); assay: Evaluation C: chelating ability in MOPS/acetonitrile solvent, Fe-NTA solution
Experimental: as §1, §2, §3, §4, §5, §6, §7
Further, iron nitrilotriacetate complex solution (“Fe-NTA solution (20 mM)”) having a concentration of iron ions of 20 mM and iron nitrilotriacetate complex solution (“Fe-NTA solution (2 mM)”) having a concentration of iron ions of 2 mM were prepared, in the same manner as the preparation method of iron nitrilotriacetate complex solution in evaluation B of the iron chelating agent.
Further, Fe-NTA solution (20 mM) was added to and mixed with each of the iron chelating agent solutions [Fe-Ser•Na (MOPS solution), Fe-His•Na (MOPS solution), Fe-Glu•Na (MOPS solution)] using MOPS. […] Further, Fe-NTA solution (2 mM) was added and mixed thereto as described above.

[4] = FAC solution (2 mM) added to chelating agent MOPS solution (MOPS, acetonitrile)
[5] = FAC solution (20 mM) added to chelating agent MOPS solution (MOPS, acetonitrile)
[6] = Fe-NTA solution (2 mM) added to chelating agent MOPS solution (MOPS, acetonitrile)
[7] = Fe-NTA solution (20 mM) added to chelating agent MOPS solution (MOPS, acetonitrile)

T1 sequence (P02787 20-698, one chain of several): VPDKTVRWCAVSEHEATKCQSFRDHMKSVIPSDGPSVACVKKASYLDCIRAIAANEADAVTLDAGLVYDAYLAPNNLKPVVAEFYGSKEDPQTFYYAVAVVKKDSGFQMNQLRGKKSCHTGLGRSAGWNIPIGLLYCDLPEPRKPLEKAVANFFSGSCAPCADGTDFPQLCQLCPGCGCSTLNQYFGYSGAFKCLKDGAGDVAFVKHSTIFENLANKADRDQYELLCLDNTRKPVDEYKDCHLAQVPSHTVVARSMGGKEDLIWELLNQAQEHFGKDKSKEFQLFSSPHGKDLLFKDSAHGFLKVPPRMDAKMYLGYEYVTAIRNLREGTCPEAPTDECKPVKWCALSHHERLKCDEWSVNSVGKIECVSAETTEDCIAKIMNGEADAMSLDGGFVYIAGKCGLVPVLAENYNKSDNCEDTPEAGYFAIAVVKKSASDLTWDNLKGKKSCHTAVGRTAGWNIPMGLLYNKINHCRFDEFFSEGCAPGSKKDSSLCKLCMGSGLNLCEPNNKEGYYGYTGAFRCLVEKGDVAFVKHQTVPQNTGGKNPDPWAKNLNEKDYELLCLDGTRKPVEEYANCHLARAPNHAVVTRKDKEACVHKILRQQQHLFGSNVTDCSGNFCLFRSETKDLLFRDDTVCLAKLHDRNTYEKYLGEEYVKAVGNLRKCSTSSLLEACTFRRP

hTf residual ratio (%) [1]: 79.59%
Absorbance (466 nm) [1]: 0.0589
Compound: O=C(O)CN(CC(=O)O)CC(=O)O [Comparative Example 1, nitrilotriacetic acid, reference compound]

Compound: O=C(O)C(Cc1c[nH]cn1)NCc1ccccc1O (centres unmarked) [Example 2, o-[(1-carboxy-2-(1H-imidazol-4-yl)ethyl)-amino-methyl]-phenol]
colour of the solution after mixing [2, 4]: dark brown-colored
colour of the solution after mixing [2, 5]: dark brown-colored
hTf residual ratio (%) [1]: 83.78%
Absorbance (466 nm) [1]: 0.0620
colour of the solution after mixing [3, 6]: dark brown-colored
colour of the solution after mixing [3, 7]: dark brown-colored

Compound: NC(=O)CCC(NCc1ccccc1O)C(=O)O (centres unmarked) [Example 3, o-[(1-carboxy-2-carbamoylmethylethyl)-amino-methyl]-phenol]
colour of the solution after mixing [2, 4]: dark brown-colored
colour of the solution after mixing [2, 5]: dark brown-colored
colour of the solution after mixing [3, 6]: dark brown-colored
colour of the solution after mixing [3, 7]: dark brown-colored

Compound: N-(2-hydroxyethyl)-ethylenediamine triacetic acid [Comparative Example 3, reference compound]
hTf residual ratio (%) [1]: 69.59%
Absorbance (466 nm) [1]: 0.0515
